Laboratory results reported in ChEMBL document CHEMBL5705903, “A DNA Hypomethylation Signature Predicts Antitumor Activity of LSD1 Inhibitors in SCLC” (Cancer Cell, 2015).
Active and inactive are the calls of the source. The calls are words filed in the database; no cut-off is given here.

Key:
[1] = Cmax in mouse blood at 5 mg/kg, po by HPLC/MS/MS analysis; format: ADME, organism-based
[2] = Dose normalized AUC (0 to last) in mouse blood at 5 mg/kg, po by HPLC/MS/MS analysis; format: ADME, organism-based; conditions: in vivo
[3] = AUC (0 to infinity) in mouse tumor at 5 mg/kg, po by HPLC/MS/MS analysis; format: ADME, organism-based, Neoplasm
[4] = Tmax in mouse blood at 5 mg/kg, po by HPLC/MS/MS analysis; format: ADME, organism-based
NCI-H1417 = experiment: Cell growth inhibition of human NCI-H1417 cells measured upto 10 days; format: functional, cell-based; conditions: time <= 10.0 day
[5] = Effect on cleaved PARP level in human NCI-H1417 cells assessed as relative expression at 10 nM measured after 7 days by Western blot analysis (reference value: 0.10); format: functional; conditions: time 7 day
[6] = Effect on cleaved PARP level in human NCI-H526 cells assessed as relative expression at 1000 nM measured after 7 days by Western blot analysis (reference value: 0.57); format: functional; conditions: time 7 day
[7] = Effect on cleaved PARP level in human NCI-H526 cells assessed as relative expression at 100 nM measured after 14 days by Western blot analysis (reference value: 0.66); format: functional; conditions: time 14 day
[8] = Effect on cleaved PARP level in human NCI-H526 cells assessed as fold change at 10 nM measured after 10 days by Western blot analysis (reference value: 1.00); format: functional; conditions: time 10 day
[9] = Effect on cleaved PARP level in human NCI-H524 cells assessed as relative expression at 10 nM measured after 7 days by Western blot analysis (reference value: 0.63); format: functional; conditions: time 7 day
[10] = Effect on cleaved PARP level in human NCI-H524 cells assessed as relative expression at 10 nM measured after 10 days by Western blot analysis (reference value: 0.95); format: functional; conditions: time 10 day
[11] = Effect on cleaved PARP level in human NCI-H524 cells assessed as fold change at 10 nM measured after 7 days by Western blot analysis (reference value: 1.00); format: functional; conditions: time 7 day
[12] = Effect on cleaved PARP level in human COLO-668 cells assessed as relative expression at 1000 nM measured after 7 days by Western blot analysis (reference value: […]); format: functional; conditions: time 7 day
[13] = Effect on cleaved PARP level in human COLO-668 cells assessed as relative expression at 1000 nM measured after 14 days by Western blot analysis (reference value: 3.50); format: functional; conditions: time 14 day
[14] = Effect on cleaved PARP level in human COLO-668 cells assessed as fold change at 10 nM measured after 14 days by Western blot analysis (reference value: 1.00); format: functional; conditions: time 14 day
[15] = Effect on cleaved PARP level in human COLO-668 cells assessed as fold change at 1000 nM measured after 14 days by Western blot analysis (reference value: 1.00); format: functional; conditions: time 14 day
[16] = Effect on cleaved PARP level in human NCI-H1694 cells assessed as relative expression at 1000 nM measured after 7 days by Western blot analysis (reference value: 0.25); format: functional; conditions: time 7 day
[17] = Effect on cleaved PARP level in human NCI-H1694 cells assessed as relative expression at 100 nM measured after 14 days by Western blot analysis (reference value: 0.25); format: functional; conditions: time 14 day
[18] = Effect on cleaved PARP level in human NCI-H1694 cells assessed as fold change at 100 nM measured after 7 days by Western blot analysis (reference value: 1.00); format: functional; conditions: time 7 day
[19] = Effect on cleaved PARP level in human NCI-H69 cells assessed as relative expression at 100 nM measured after 7 days by Western blot analysis (reference value: 0.02); format: functional; conditions: time 7 day
[20] = Effect on cleaved PARP level in human NCI-H69 cells assessed as fold change at 1000 nM measured after 14 days by Western blot analysis (reference value: 1.00); format: functional; conditions: time 14 day
[21] = Effect on cleaved PARP level in human NCI-H510 cells assessed as relative expression at 1000 nM measured after 10 days by Western blot analysis (reference value: 0.02); format: functional, NCI-H510A; conditions: time 10 day
[22] = Effect on cleaved PARP level in human NCI-H889 cells assessed as fold change at 100 nM measured after 7 days by Western blot analysis (reference value: 1.00); format: functional; conditions: time 7 day
[23] = Effect on cleaved PARP level in human NCI-H889 cells assessed as fold change at 1000 nM measured after 7 days by Western blot analysis (reference value: 1.00); format: functional; conditions: time 7 day
[24] = Effect on cleaved PARP level in human NCI-H146 cells assessed as relative expression at 10 nM measured after 7 days by Western blot analysis (reference value: […]); format: functional; conditions: time 7 day
[25] = Effect on cleaved PARP level in human NCI-H146 cells assessed as relative expression at 1000 nM measured after 10 days by Western blot analysis (reference value: 0.27); format: functional; conditions: time 10 day
[26] = Toxicity in rat assessed as thrombocytopenia measured for 28 days; conditions: in vivo, 672 h, time 28 day
[27] = Toxicity in rat assessed as multifocal hemorrhage in organs measured for 28 days; conditions: in vivo, 672 h, time 28 day
[28] = Toxicity in rat assessed as declining clinical condition measured for 28 days; conditions: in vivo, 672 h, time 28 day
[29] = Toxicity in rat assessed as effect on hemodynamics measured for 28 days; conditions: in vivo, 672 h, time 28 day
[30] = Toxicity in dog assessed as suppression of platelet in bone marrow measured for 28 days; format: cell-based, Canis lupus familiaris; conditions: 672 h, time 28 day
[31] = Toxicity in dog assessed as neutrophenia measured for 28 days; design: species or system Canis lupus familiaris; conditions: in vivo, 672 h, time 28 day
[32] = Toxicity in dog assessed as effect on hemodynamics measured for 28 days; design: species or system Canis lupus familiaris; conditions: in vivo, 672 h, time 28 day
NCI-H69 = experiment: Antitumor activity against human NCI-H69 cells xenografted in nude mouse assessed as mean tumor volume at 1.5 mg/kg, po administered daily measured twice weekly (reference value: 1063 +/- 161 mm3); format: functional
NCI-H526 [33] = experiment: Antitumor activity against human NCI-H526 cells xenografted in nude mouse assessed as tumor growth inhibition at 0.5 mg/kg, po administered daily measured twice weekly relative to control; format: functional; conditions: read-out: TGI
NCI-H526 [34] = experiment: Effect on NSE gene expression in human NCI-H526 cells at 1 uM measured after 4 to 7 days by qRT-PCR analysis; format: functional, cell-based; conditions: time 4-7 day
COLO-668 = experiment: Effect on NSE gene expression in human COLO-668 cells at 1 uM measured after 4 to 7 days by qRT-PCR analysis; format: functional, cell-based; conditions: time 4-7 day
NCI-H526 [35] = experiment: In vivo inhibition of LSD1 in human NCI-H526 cells xenografted in nude mouse assessed as change in FEZ1 gene expression administrated daily for 5 days by qRT-PCR analysis; format: functional, organism-based; conditions: dose 0.02-135 mg/kg, time 5.0 day
NCI-H526 [36] = experiment: In vivo inhibition of LSD1 in human NCI-H526 cells xenografted in nude mouse assessed as change in ODZ2 gene expression administrated daily for 5 days by qRT-PCR analysis; format: functional, organism-based; conditions: dose 0.02-135 mg/kg, time 5.0 day
[37] = biological target: Lysine-specific histone demethylase 1A (Homo sapiens, UniProt O60341); conditions: NCI-H526, dose 1-10000 nM, time 1-7 day
Description: Inhibition of LSD1 in human NCI-H526 cells assessed as change in IGFBP2 gene expression at 1 to 10000 nM by qRT-PCR analysis

## O=C(O)c1ccc(CN2CCC(CN[C@@H]3C[C@H]3c3ccccc3)CC2)cc1 [GSK2879552]
[1]
  Cmax: 720 ng/mL
[2]
  AUClast/dose: 171 ng·h/mL/mg/kg
[3]
  AUC(0-inf): 2690 ng·h/mL
[4]
  Tmax: 15 min
NCI-H1417
  growth inhibition (GI): Dose-Dependent Effect
[5]
  Activity: 0.16
[6]
  Activity: 0.74
[7]
  Activity: 0.93
[8]
  fold change (FC): 0.57
[9]
  Activity: 0.62
[10]
  Activity: 0.77
[11]
  fold change (FC): 0.99
[12]
  Activity: 1.36
[13]
  Activity: 1.02
[14]
  fold change (FC): 0.41
[15]
  fold change (FC): 0.29
[16]
  Activity: 0.36
[17]
  Activity: 0.23
[18]
  fold change (FC): 1.11
[19]
  Activity: 0.03
[20]
  fold change (FC): 5.16
[21]
  Activity: 0.23
[22]
  fold change (FC): 1.25
[23]
  fold change (FC): 1.92
[24]
  Activity: 2.37
[25]
  Activity: 0.24
[26]
  Activity: Toxic
[27]
  Activity: Toxic
[28]
  Activity: Toxic
[29]
  Activity: Toxic
[30]
  Activity: Toxic
[31]
  Activity: Toxic
[32]
  Activity: Toxic
NCI-H69
  Activity: 610 mm3
NCI-H526 [33]
  inhibition in vivo at 0.5 mg/kg: 48%
NCI-H526 [34]
  Activity: inactive
COLO-668
  Activity: inactive
NCI-H526 [35]
  inhibition: Dose-Dependent Effect
NCI-H526 [36]
  inhibition: Dose-Dependent Effect
[37]
  inhibition: Tde
